# pEC50: −log10 of the molar value. Values joined by “and” are separate entries in the source; they are usually repeats but may differ in a detail not shown here. Equal entries are not always repeated.
# Tests used:
# [1] = tested on: human neuroblastoma cells (SH-SY5Y); test: Viability of SH-SY5Y cells after auranofin (AuF) challenge, methylene blue staining; assay type: cell-based; conditions: SH-SY5Y pre-treated with 5 µM AuF 30 min, washed, compound added, viability 24 h later
# Description: Viability of cells pre-treated with 5 µM AuF for 30 min, washed and later exposed to increasing concentrations of SD-444, was determined 24 h later.
# A) The anti-apoptotic activity of SD-444 was tested on human neuronal cells SH-SY5Y. The cells were challenged by auranofin (AuF) that induces cellular stress by selectively blocking the thioredoxin reductase activity.
# SH-SY5Y cells were plated on 96-well plates and treated with AuF in different concentrations for 30 min. Then the cells were washed with PBS and treated as indicated. Twenty-four hours later, the cells were fixed with glutaraldehyde in final concentration of 0.5% for 10 min. Cells were washed 3 times with DDW dried overnight, and washed once with borate buffer (0.1 M, pH 8.5). The fixed cells were stained with 200 µl of 1% methylene blue dissolved in borate buffer for 1 h. After extensive washing and drying, the color was extracted with 200 µl of 0.1 M HCl for 1 h at 37° C. and absorbance was read in spectrophotometer at 630 nm.
# [2] = tested on: p38MAPK phosphorylation; test: AuF-induced phosphorylation of p38MAPK in SH-SY5Y cells, western blot; assay type: cell-based, human; conditions: summary statement
# Description: Cells were treated with 10 µM AuF with or without SD-444. Phosphorylation was determined by western blot analysis. The amount of each band was quantitated by densitometry and plotted with a linear regression program normalized with β catenin (b-cat).
# (§1) In the assay, twenty to thirty micrograms of protein samples were loaded on 10-12% SDS-PAGE gels. The proteins were then transferred electrophoretically to nitrocellulose (Whatman, Germany). The blots were blocked by incubation for 1 h at RT in TBS-T (25 mM Tris-HCl pH 7.4, 0.9% NaCl and 0.02% Tween-20) with 4% Difco skim milk (BD, USA), and incubated over-night at 4° C. with the primary antibody: p-p38^MAPK (Thr180/Tyr182), rabbit mAb; p38, rabbit Ab.
# [3] = tested on: JNK phosphorylation; test: AuF-induced phosphorylation of JNK in SH-SY5Y cells, western blot; assay type: cell-based, human
# Description: SH-SY5Y cells were treated with 10 µM AuF with or without SD-444. Phosphorylation was determined by western blot analysis. The amount of each band was quantitated by densitometry and plotted with a linear regression program normalized to total JNK.
# as §1
# as §1, with “1h” for “1 h”, “p-JNK^MAPK, and β-catenin.” for “p-p38^MAPK (Thr180/Tyr182), rabbit mAb; p38, rabbit Ab.”
# [4] = tested on: PC12 cells; test: Phase microscopy of AuF-induced morphological changes in PC12 cells; assay type: cell-based; conditions: 2 µM AuF 30 min, washed, 150 µM SDA, 37° C., 4 hrs; listed as SDA
# Description: PC12 cells were treated with AuF with or without SD-444. Morphological changes were visualized 4 hr later (magnification x200).
# (FIG. 7A) Control untreated PC12 cells (FIG. 7B). PC12 cells were treated with AuF (2 µM; 30 min) lose their morphology and become rounded, as compared to untreated cells. […] Cells were treated with AuF (2 µM) for 30 min, washed and then SDA was added at 25 µM or 100 µM. Cells were visualized 4 hr later (magnification, 100 × and 400 x).
# C) Phase microscopy studies: The ability of SD-444 to rescue cells from oxidative stress was tested by exposing the PC12 to 2 µM auranofin for 30 min, and after washing incubated with 250 µM SD-444 at 37° C. for additional 4 hrs.
# B) Phase microscopy studies: The ability of SDA to rescue the cells from oxidative stress was tested by exposing the PC12 to auranofin 2 µM for 30 min with or without 150 µM SDA. AuF was washed after 30 min and 150 µM SDA was added and allowed to incubate at 37° C. for additional 4 hrs.
# [5] = Body weight monitoring in rotenone-treated rats; assay type: in vivo, Sprague Dawley rats; conditions: for Weight: individual rat, listed as SDA
# Description: (§2) 1-SD (Rotenone + SD); 2 - SDA (Rotenone + SDA); 3 - Control (Rotenone); 4 -Naive. The experimental groups were comprised of 6 animals for treated groups (1-3) and 2 animals in naive group (4). Rotenone was administrated 3.0 mg/kg intraperitoneally (IP) once a day in the morning (days 1-9). SD 33 mg/kg and SDA 33 mg/kg were administrated intraperitoneally once a day in the afternoon (days 1-9).
# Animals weight was measured before initiation of treatment (day 0), on days 4,7, 9 during the experiment and on termination day 11. On day 11, animals were sacrificed and brains were harvested for further histopathological analysis.
# (§3) IP administration: Rotenone was administrated to groups 1-3. Rotenone was injected intraperitoneally at a dose 3.0 mg/kg once a day in the morning (days 1-9). SD and SDA was administrated both at a dose of 33 mg/kg and were injected intraperitoneally once a day in the afternoon (days 1-9). Group number 4 was untreated, and remained as a naive group.
# [6] = tested on: Rotenone -induced model of Parkinson's disease (PD) in rats; test: Rat rearing behavior (cylinder) test, rotenone model; assay type: in vivo, Sprague Dawley rats; conditions: for Cylinder rise and touch (number of rears in 2 min): individual rat, listed as SDA
# Description: as §2
# (§4) Rearing behavior, rotarod and beam walk tests were performed before initiation of treatment (day 0) as well as on days 4, 8 and 10 of the experiment.
# as §3
# Animals were placed in a clear glass cylinder (40 cm high and 20 cm diameter) and number of rears in 2 min was observed. Rear was considered as animals raised their hands above the shoulder and made contact with the wall of cylinder with their forelimb.
# [7] = tested on: Rotenone -induced model of Parkinson's disease (PD) in rats; test: Rat beam walk test, rotenone model; assay type: in vivo, Sprague Dawley rats; conditions: for beam end time: individual rat, listed as SDA
# Description: as §2, §4, §3
# Animals were gently placed on 1 m long narrow aluminum beam facing one of the ends and allowed to walk to the end of the beam.
# [8] = average n=6, day 0 (before treatment)
# [9] = day 0 (before treatment), rotenone 3 mg/kg + compound 33 mg/kg IP
# [10] = rats, rotenone 3.0 mg/kg IP + compound 33 mg/kg IP, days 1-9
structure (smiles),measurement,setting,value
"CC(=O)NC(CS)C(=O)NC(Cc1cccc(O)c1O)C(N)=O (stereo not drawn) [SDA-341, Acetyle-Cys-2,3 dihydroxyphenylalanine-amide]",neuronal cell-viability after AuF,[1],increase viability
same,p38 phosphorylation (AuF-triggered),[2],inhibit
same,pEC50,"[3]; 10 µM AuF, western blot densitometry, read-out: EC50 in reduction of JNK activation",4.00
same,JNK phosphorylation (AuF-triggered),[3]; summary statement,inhibit
same,morphology of AuF-treated PC12 cells,[4],normal morphology
same,"Weight, group average",[5]; [8],304.33 gr
same,"Weight, group average","[5]; average n=6, day 4",294.17 gr
same,"Weight, group average","[5]; average n=6, day 7",284.33 gr
same,"Weight, group average","[5]; average n=6, day 9",275.50 gr
same,"Weight, group average","[5]; average n=6, day 11",271.33 gr
same,Weight,[5]; [9],292 gr and 307 gr (2×) and 305 gr and 315 gr and 300 gr
same,Weight,"[5]; day 4, rotenone 3 mg/kg + compound 33 mg/kg IP",284 gr and 293 gr and 299 gr (2×) and 294 gr and 296 gr
same,Weight,"[5]; day 7, rotenone 3 mg/kg + compound 33 mg/kg IP",274 gr and 283 gr (2×) and 287 gr and 288 gr and 291 gr
same,Weight,"[5]; day 9, rotenone 3 mg/kg + compound 33 mg/kg IP",275 gr and 272 gr and 267 gr and 274 gr and 281 gr and 284 gr
same,Weight,"[5]; day 11, rotenone 3 mg/kg + compound 33 mg/kg IP",272 gr and 261 gr and 269 gr and 266 gr and 283 gr and 277 gr
same,"Cylinder rise and touch, group average",[6]; [8],12.83
same,"Cylinder rise and touch, group average","[6]; average n=6, day 4",12.67
same,"Cylinder rise and touch, group average","[6]; average n=6, day 8",14.83
same,"Cylinder rise and touch, group average","[6]; average n=6, day 10",12.50
same,Cylinder rise and touch (number of rears in 2 min),[6]; [9],18 (2×) and 9 and 12 (2×) and 8
same,Cylinder rise and touch (number of rears in 2 min),[6]; day 4,14 (2×) and 12 and 11 and 15 and 10
same,Cylinder rise and touch (number of rears in 2 min),[6]; day 8,15 and 19 (2×) and 8 and 12 and 16
same,Cylinder rise and touch (number of rears in 2 min),[6]; day 10,11 and 14 (2×) and 9 and 10 and 17
same,"Cylinder test, maintaining locomotor activity in Rotenone-treated rats",[6]; [10],very effective
same,"beam end time, group average",[7]; [8],9.50 s
same,"beam end time, group average","[7]; average n=6, day 4",17.50 s
same,"beam end time, group average","[7]; average n=6, day 8",25.67 s
same,"beam end time, group average","[7]; average n=6, day 10",20.33 s
same,beam end time,[7]; [9],7 s and 3 s and 10 s and 8 s and 12 s and 17 s
same,beam end time,[7]; day 4,12 s and 32 s and 14 s and 21 s and 10 s and 16 s
same,beam end time,[7]; day 8,16 s and 23 s and 52 s and 18 s and 19 s and 26 s
same,beam end time,[7]; day 10,22 s and 17 s and 34 s and 10 s and 21 s and 18 s
same,"Walk-beam test, reversal of rotenone induced imbalance",[7]; [10],very effective

# Source: patent publication US20230192764A1, “NOVEL DOPAMINE PRECURSORS” (Yissum Research Development Company of the Hebrew …, priority 2018, published 2023)
